The source of these data is patent US20240245741A1, “EXTRACTION METHOD USING AN AQUEOUS ALKANEDIOL” (Minasolve SAS, priority 2021, published 2024).

A short description of data set [1]: physchem. The settings on record: for solubility at 5 min: thermodynamic from solid. Here is the method: All experiments were performed at ambient temperature. Each model substance was weighted into test tubes, and a precise volume of each solvent mixture was added in order to obtain saturated solutions. The test tubes were vortexed for 5 min and subsequently centrifuged (12000 rpm during 15 min at 25° C.). An aliquot of the supernatant was diluted for UV-spectrophotometric assay. Absorbance measurements were made at wavelengths adapted to each studied molecule. High Performance Liquid Chromatography (HPLC-DAD) was used for Rosmarinic Acid (RA) quantification. Determination of Radical Scavenging Capacity was conducted through DPPH assay.
Each experiment was performed in triplicate.
The solubilisation power of aqueous Pentylene Glycol solutions (from 0 to 100% of PG) for five different model substances was compared to that of 80 wt. % aqueous ethanol.
Various mixtures of bio-based PG and bio-based caprylyl glycol (CG) were explored for dissolving hesperidin. The proportion of bio-based caprylyl glycol ranged from 0 to 30%.
Regarding solubility in the ternary mixture of PG/CG/water, six different mixtures out of the monophasic region of the ternary system were prepared (see FIG. 2): Three water-rich solvent mixtures, one with a high percentage of PG, one with a high percentage of CG and one with a similar percentage of all three components. All the alkanediols used in this study were bio-based or “green”.

The nature of data set [2]: Ternary phase diagrams PG/water/lipophilic ingredient (monophasic region). The settings on record: with 85% PG, 10% water.
Experimental: The ternary systems studied consisted of water and an organic solvent that is immiscible with water. A third liquid was added that is soluble in each of the other two components. This third liquid acts as a hydrotrope, which increases the solubility of the two immiscible liquids in each other. The white areas indicate a single-phase mixture (clear solution), while the grey areas show a biphasic mixture.
Binary mixtures of water and PG (0:100, 10:90, 20:80, 30:70, 40:60, 50:50, 60:40, 70:30, 80:20, 90:10, 100:0) were prepared in test tubes. Then the selected monoterpenes (carvacrol, carvone, geraniol, limonene, α-pinene, α-terpinene) were added dropwise (10 μL) to the binary mixtures and mixed. The addition of the monoterpenes was continued until the clear liquid changed to a turbid liquid. The test tubes were then shaken for 2 minutes and allowed to settle for 24 hours to check whether or not the biphasic liquid changed to a monophasic liquid. In the case of thymol, very small amounts of the solid sample were added to the binary mixtures of water/PG until a turbid liquid was visible to the naked eye.
Essential oils (thyme, citronella, eucalyptus and lavender) were added dropwise to the binary mixtures of water/PG until a turbid liquid was observed. After the addition of each drop (10 μL) and mixing, the samples were rested for 2 minutes to see whether there is a phase separation or not. […]
Setting [3] is: 25 °C, organic solvent or mixture.
Setting [4] is: aqueous with cosolvent or surfactant or cyclodextrin.

Molecules are shown by their SMILES. Converted amounts (≈) assume the structure as drawn. Where two headings read alike, the source gives them in different places.

Take `CC1=C(/C=C/C(C)=C/C=C/C(C)=C/C=C/C=C(C)/C=C/C=C(C)/C=C/C2=C(C)CCCC2(C)C)C(C)(C)CCC1` [B-C, β-carotene]: in data set [1], the Solubility result was “completely insoluble”. The “Amount dissolved compared to hexane” value in data set [1] (ternary point 4 versus hexane) was “three times more”.

For `COc1cc(/C=C/C(=O)CC(=O)/C=C/c2ccc(O)c(OC)c2)ccc1O` [CU, Curcumin], the solubility – broadly, the concentration that dissolves in the medium under given conditions – at 5 min was 1900 ± 45 µg/mL (≈ 5.16 mM) in data set [1] (25 °C, aqueous with cosolvent or surfactant or cyclodextrin); 5850 ± 310 µg/mL (≈ 15.9 mM) in data set [1] (setting [3]); 0.5 µg/mL (≈ 0.00136 mM) in data set [1] (25 °C, water); 3650 ± 220 µg/mL (≈ 9.91 mM) in data set [1] (setting [4]); 7900 µg/mL (≈ 21.4 mM) in data set [1] (organic solvent or mixture). Further, in data set [1] (5 min), the “Solubility compared to 80% ethanol” value was determined as 1.6 fold.

In the case of `O=C(O)c1cc(O)c(O)c(O)c1` [GA, Gallic acid], the “Solubility in 70% PG relative to water (factor)” value in data set [1] was roughly 12.4 times. Also, the solubility at 5 min in data set [1] (setting [3]) was found to be 42000 ± 540 µg/mL (≈ 247 mM); in data set [1] (25 °C, water) it was 10500 ± 1100 µg/mL (≈ 61.7 mM); in data set [1] (setting [4]), 95100 ± 8120 µg/mL (≈ 559 mM). The “Solubility in 100% PG compared to that of 70% PG” value in data set [1] (5 min) is reported as 32.3%. The “Solubilization power relative to 80% ethanol” value in data set [1] (5 min) worked out at 58.75%.

Regarding `COc1ccc([C@@H]2CC(=O)c3c(O)cc(O[C@@H]4O[C@H](CO[C@@H]5O[C@@H](C)[C@H](O)[C@@H](O)[C@H]5O)[C@@H](O)[C@H](O)[C@H]4O)cc3O2)cc1O` [HE, Hesperidin], the “Solubilisation power relative to 80% ethanol” value in data set [1] (5% CG in PG versus 80% ethanol) amounted to 82.4%. Moreover, the “Solubility compared to PG alone” value in data set [1] (5% CG in PG versus PG alone) is recorded as 5 times. Besides, the Solubility was 0.078 ± 0.005 g/litre of solvent in data set [1] ((PG:CG) solution, 1% CG); 0.11 ± 0.006 g/litre of solvent in data set [1] ((PG:CG) solution, 5% CG); 0.071 ± 0.003 g/litre of solvent in data set [1] ((PG:CG) solution, 10% CG); 0.071 ± 0.007 g/litre of solvent in data set [1] ((PG:CG) solution, 20% CG); 0.06 ± 0.01 g/litre of solvent in data set [1] ((PG:CG) solution, 30% CG); 0.013 ± 0.003 g/litre of solvent in data set [1] (solvent 10% PG in water, ambient temperature). For the same compound, the Solubility is on record as 0.177 ± 0.006 g/litre of solvent in data set [1] (solvent 30% PG in water, ambient temperature); 0.218 ± 0.024 g/litre of solvent in data set [1] (solvent 50% PG in water, ambient temperature); 0.19 ± 0.011 g/litre of solvent in data set [1] (solvent 70% PG in water, ambient temperature); 0.13 ± 0.009 g/litre of solvent in data set [1] (solvent 80% EtOH, ambient temperature); 0.118 ± 0.012 g/litre of solvent in data set [1] (solvent 90% PG in water, ambient temperature); 0.00 g/litre of solvent in data set [1] (solvent 100% H2O, ambient temperature). The Solubility entry was “completely insoluble” in data set [1] (solvent 100% H2O, ambient temperature, listed as He); 0.0216 ± 0.002 g/litre of solvent in data set [1] (solvent 100% PG, ambient temperature); 0.022 ± 0.002 g/litre of solvent in data set [1] (solvent 100% PG, ambient temperature, listed as Hesperidin). Moreover, the “Concentration of natural substance in a saturated solution” value in data set [1] (ternary mixture No 1: 64.7% PG, 17.6% CG, 17.7% H2O) was determined as 340 ± 30 µg/mL; in data set [1] (ternary mixture No 2: 37.5% PG, 31.2% CG, 31.3% H2O), 440 ± 30 µg/mL; in data set [1] (ternary mixture No 3: 31.2% PG, 12.5% CG, 56.3% H2O) it was 460 ± 10 µg/mL; in data set [1] (ternary mixture No 4: 32.1% PG, 55.1% CG, 12.8% H2O) it was 300 ± 30 µg/mL; in data set [1] (ternary mixture No 5: 25% PG, 12.5% CG, 62.5% H2O), 400 ± 30 µg/mL; in data set [1] (ternary mixture No 6: 16.65% PG, 8.9% CG, 74.45% H2O), 310 ± 10 µg/mL. In addition, in data set [1] (ternary mixture No. 3 versus 80% ethanol), the “Concentration relative to 80% ethanol” value amounted to 3.6 times.

On to `O=C(/C=C/c1ccc(O)c(O)c1)O[C@H](Cc1ccc(O)c(O)c1)C(=O)O` [RA, Rosmarinic Acid], for which the “Solubilisation power relative to water” value in data set [1] was 27.2 times. In addition, the “Solubilisation relative to water” value in data set [1] is recorded as 26.8 times. The solubility at 5 min in data set [1] (setting [3]) turned out to be 12800 ± 1200 µg/mL (≈ 35.5 mM); in data set [1] (25 °C, water) it was 6600 ± 2400 µg/mL (≈ 18.3 mM); in data set [1] (setting [4]), 302000 ± 9400 µg/mL (≈ 839 mM). Besides, in data set [1] (5 min), the “Solubility relative to solubility in 80% ethanol” value is recorded as 92%.

For the compound `C=C(C)[C@H]1CC=C(C)CC1` [limonene], the “Proportion in a self-stabilized ternary mixture” value in data set [2] is recorded as 5%.
